Measurements as given in the supplement of paper PMC10627819.

What was measured:
[1] = system: B. subtilis 168; test: fitness (endpoint OD595 vs no drug) (fraction); higher = more growth
Outline: (§1)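 At 37 °C, bacteria in TSB, LB Lennox or CY were grown in 384-well plates from a starting OD595 of 0.01. OD595 was measured every 30 min for 14 h, with the first reading used as background. Fitness is the optical density at the switch to stationary phase as a fraction of the robust mean of no-drug control wells, capped at 1.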

[2] = system: S. aureus Newman; test: as above
Outline: as §1

[3] = system: S. pneumoniae D39V; test: as above
Outline: as §1

[4] = system: B. subtilis 168; test: Bliss interaction score (quartile over a dose matrix) (fitness difference); higher = more antagonism (negative = synergy)
Outline: (§2)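 Combination data were used to infer fitness under each single drug. Fitness is the OD595 at entry into stationary phase divided by the robust mean of the plate's no-drug wells, with a cap of 1. The Bliss score is the observed minus the expected product fitness, summarised by quartiles over technical, biological and donor/recipient replicates.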

[5] = system: S. aureus DSM 20231; test: as above
Outline: as §2

[6] = system: S. aureus Newman; test: as above
Outline: as §2

[7] = system: S. pneumoniae D39V; test: as above
Outline: as §2
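Wherever Bliss interaction score (quartile over a dose matrix) is given: first quartile when negative (synergy) and third quartile when positive (antagonism).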

CCCCCCCCCC(=O)N[C@@H](Cc1c[nH]c2ccccc12)C(=O)N[C@H](CC(N)=O)C(=O)N[C@@H](CC(=O)O)C(=O)N[C@@H]1C(=O)NCC(=O)N[C@@H](CCCN)C(=O)N[C@@H](CC(=O)O)C(=O)N[C@H](C)C(=O)N[C@@H](CC(=O)O)C(=O)NCC(=O)N[C@H](CO)C(=O)N[C@@H]([C@H](C)CC(=O)O)C(=O)N[C@@H](CC(=O)c2ccccc2N)C(=O)O[C@@H]1C [Daptomycin] + CN(C)c1cc(NC(=O)CNC(C)(C)C)c(O)c2c1C[C@H]1C[C@H]3[C@H](N(C)C)C(O)=C(C(N)=O)C(=O)[C@@]3(O)C(O)=C1C2=O [Tigecycline]
fitness
Conditions | first compound 0.125 µg/mL | first compound 0.25 µg/mL | first compound 0.5 µg/mL | first compound 1 µg/mL | first compound 2 µg/mL | first compound 4 µg/mL
[1], partner 0.039 µg/mL | 0.929 | 0.926 | 0.869 | – | – | –
[1], partner 0.078 µg/mL | 0.89 | 0.892 | 0.867 | – | – | –
[1], partner 0.156 µg/mL | 0.904 | 0.905 | 0.885 | – | – | –
[2], partner 0.039 µg/mL | 0.932 | 0.984 | 0.917 | – | – | –
[2], partner 0.078 µg/mL | ≥ 1 | 0.988 | 0.987 | – | – | –
[2], partner 0.156 µg/mL | ≥ 1 | 0.997 | 0.991 | – | – | –
[3], partner 0.325 µg/mL | – | – | – | 0.973 | 0.993 | 0.976
[3], partner 0.65 µg/mL | – | – | – | 0.959 | 0.945 | 0.963
[3], partner 1.3 µg/mL | – | – | – | 0.963 | 0.956 | 0.972
[3], partner 2.6 µg/mL | – | – | – | 0.911 | 0.903 | 0.956

fitness, [1], one replicate
Conditions | partner 0.039 µg/mL | partner 0.078 µg/mL | partner 0.125 µg/mL | partner 0.156 µg/mL | partner 0.25 µg/mL | partner 0.5 µg/mL
first compound 0.125 µg/mL | – | – | 0.985 | – | 0.902 | 0.899
first compound 0.25 µg/mL | – | – | 0.974 | – | 0.926 | 0.981
first compound 0.5 µg/mL | – | – | 0.955 | – | 0.944 | 0.989
first compound 1 µg/mL | 0.759 | 0.732 | – | 0.731 | – | –

Conditions | Bliss interaction score
[4] | -0.0609
[5] | 0.0697
[6] | -0.037
[7] | 0.0991

CCCCCCCCCC(=O)N[C@@H](Cc1c[nH]c2ccccc12)C(=O)N[C@H](CC(N)=O)C(=O)N[C@@H](CC(=O)O)C(=O)N[C@@H]1C(=O)NCC(=O)N[C@@H](CCCN)C(=O)N[C@@H](CC(=O)O)C(=O)N[C@H](C)C(=O)N[C@@H](CC(=O)O)C(=O)NCC(=O)N[C@H](CO)C(=O)N[C@@H]([C@H](C)CC(=O)O)C(=O)N[C@@H](CC(=O)c2ccccc2N)C(=O)O[C@@H]1C [Daptomycin] + CN[C@@H]1[C@H](O[C@H]2[C@H](O[C@H]3[C@H](O)[C@@H](O)[C@H](N=C(N)N)[C@@H](O)[C@@H]3N=C(N)N)O[C@@H](C)[C@]2(O)C=O)O[C@@H](CO)[C@H](O)[C@H]1O [Streptomycin]
fitness
Conditions | partner 1 µg/mL | partner 2 µg/mL | partner 4 µg/mL | partner 8 µg/mL
[1], first compound 0.125 µg/mL | – | 0.954 | 0.651 | 0.0465
[1], first compound 0.25 µg/mL | – | 0.977 | – | 0.0589
[1], first compound 0.5 µg/mL | – | 0.923 | – | 0.0321
[2], first compound 0.125 µg/mL | 0.971 | 0.988 | – | –
[2], first compound 0.25 µg/mL | 0.964 | 0.985 | – | –
[2], first compound 0.5 µg/mL | 0.986 | 0.973 | – | –
[3], first compound 1 µg/mL | – | 0.926 | 0.902 | 0.825
[3], first compound 2 µg/mL | – | 0.955 | 0.909 | 0.876
[3], first compound 4 µg/mL | – | 0.95 | 0.924 | 0.86

fitness, one replicate
Conditions | first compound 1 µg/mL | first compound 2 µg/mL | first compound 4 µg/mL
[1], partner 2 µg/mL | 0.654 | – | –
[1], partner 4 µg/mL | 0.245 | – | –
[1], partner 8 µg/mL | 0.0183 | – | –
[3], partner 16 µg/mL | 0.795 | 0.804 | 0.773

Conditions | Bliss interaction score
[4] | -0.0625
[5] | 0.0838
[6] | 0.0589
[7] | 0.103

CCN(CC)CCOC(=O)c1ccc(N)cc1 [Procaine] + CN(C)c1cc(NC(=O)CNC(C)(C)C)c(O)c2c1C[C@H]1C[C@H]3[C@H](N(C)C)C(O)=C(C(N)=O)C(=O)[C@@]3(O)C(O)=C1C2=O [Tigecycline]
fitness
Conditions | first compound 85.5 µg/mL | first compound 171 µg/mL | first compound 342 µg/mL
[1], partner 0.039 µg/mL | 0.94 | 0.978 | 0.929
[1], partner 0.078 µg/mL | 0.916 | 0.96 | 0.858
[1], partner 0.156 µg/mL | 0.895 | 0.909 | 0.856
[2], partner 0.039 µg/mL | 0.955 | 0.965 | 0.928
[2], partner 0.078 µg/mL | ≥ 1 | 0.986 | 0.996
[2], partner 0.156 µg/mL | ≥ 1 | ≥ 1 | 0.991
[3], partner 0.65 µg/mL | 0.974 | 0.993 | 1
[3], partner 1.3 µg/mL | 0.946 | 0.952 | 0.957
[3], partner 2.6 µg/mL | 0.927 | 0.935 | 0.932

fitness, [1], one replicate
Conditions | first compound 85.5 µg/mL | first compound 171 µg/mL | first compound 342 µg/mL
partner 0.125 µg/mL | ≥ 1 | 0.985 | 0.974
partner 0.25 µg/mL | 0.891 | 0.917 | 0.917
partner 0.5 µg/mL | 0.913 | 0.916 | 0.905

Conditions | Bliss interaction score
[4] | -0.0701
[5] | 0.0953
[6] | 0.0571
[7] | 0.0455

CCN(CC)CCOC(=O)c1ccc(N)cc1 [Procaine] + CN[C@@H]1[C@H](O[C@H]2[C@H](O[C@H]3[C@H](O)[C@@H](O)[C@H](N=C(N)N)[C@@H](O)[C@@H]3N=C(N)N)O[C@@H](C)[C@]2(O)C=O)O[C@@H](CO)[C@H](O)[C@H]1O [Streptomycin]
fitness
Conditions | first compound 85.5 µg/mL | first compound 171 µg/mL | first compound 342 µg/mL
[1], partner 2 µg/mL | 0.914 | 0.921 | 0.94
[1], partner 8 µg/mL | 0.0423 | 0.0261 | 0.0278
[2], partner 1 µg/mL | 0.994 | 0.963 | 0.957
[2], partner 2 µg/mL | 0.983 | 0.96 | 0.985
[3], partner 2 µg/mL | 0.985 | 0.988 | 0.933
[3], partner 4 µg/mL | 0.984 | 0.984 | 0.945
[3], partner 8 µg/mL | 0.952 | 0.92 | 0.9

[3], partner 16 µg/mL, one replicate
Conditions | fitness
first compound 85.5 µg/mL | 0.815
first compound 171 µg/mL | 0.759
first compound 342 µg/mL | 0.75

Conditions | Bliss interaction score
[4] | -0.117
[5] | 0.0982
[6] | 0.0657
[7] | 0.0529
